The record followed here is PubChem BioAssay AID1259407 (Chemical Carcinogenesis Research Information System (CCRIS), 2018).

For the series, the system named is CCRIS mutagenicity, Ames/micronucleus/aberration tests. Put plainly: CCRIS mutagenicity studies.
Where [1] appears, read: Test System: AMES SALMONELLA TYPHIMURIUM, Strain/Indicator: TA98, Metabolic Activation: HAMSTER, LIVER, S-9, AROCLOR 1254 (10%), Method: PREINCUBATION
Setting [2] is: Test System: AMES SALMONELLA TYPHIMURIUM, Strain/Indicator: TA98, Metabolic Activation: NONE, Method: PREINCUBATION
Setting [3] is: Test System: AMES SALMONELLA TYPHIMURIUM, Strain/Indicator: TA98, Metabolic Activation: NONE, Method: STANDARD PLATE.
Where [4] appears, read: Test System: AMES SALMONELLA TYPHIMURIUM, Strain/Indicator: TA98, Metabolic Activation: RAT, LIVER, S-9, AROCLOR 1254 (10%), Method: PREINCUBATION
Where [5] appears, read: Test System: AMES SALMONELLA TYPHIMURIUM, Strain/Indicator: TA98, Metabolic Activation: RAT, LIVER, S-9, AROCLOR 1254, Method: STANDARD PLATE.
The mark [6] stands for this setting: Test System: AMES SALMONELLA TYPHIMURIUM, Strain/Indicator: TA100, Metabolic Activation: HAMSTER, LIVER, S-9, AROCLOR 1254 (10%), Method: PREINCUBATION
Setting [7] is: Test System: AMES SALMONELLA TYPHIMURIUM, Strain/Indicator: TA100, Metabolic Activation: NONE, Method: PREINCUBATION
[8] abbreviates: Test System: AMES SALMONELLA TYPHIMURIUM, Strain/Indicator: TA100, Metabolic Activation: NONE, Method: STANDARD PLATE.
The mark [9] stands for this setting: Test System: AMES SALMONELLA TYPHIMURIUM, Strain/Indicator: TA100, Metabolic Activation: RAT, LIVER, S-9, AROCLOR 1254 (10%), Method: PREINCUBATION
The mark [10] stands for this setting: Test System: AMES SALMONELLA TYPHIMURIUM, Strain/Indicator: TA100, Metabolic Activation: RAT, LIVER, S-9, AROCLOR 1254, Method: STANDARD PLATE.
Where [11] appears, read: Test System: AMES SALMONELLA TYPHIMURIUM, Strain/Indicator: TA1535, Metabolic Activation: HAMSTER, LIVER, S-9, AROCLOR 1254 (10%), Method: PREINCUBATION
The mark [12] stands for this setting: Test System: AMES SALMONELLA TYPHIMURIUM, Strain/Indicator: TA1535, Metabolic Activation: NONE, Method: PREINCUBATION
Where [13] appears, read: Test System: AMES SALMONELLA TYPHIMURIUM, Strain/Indicator: TA1535, Metabolic Activation: RAT, LIVER, S-9, AROCLOR 1254 (10%), Method: PREINCUBATION
The mark [14] stands for this setting: Test System: AMES SALMONELLA TYPHIMURIUM, Strain/Indicator: TA1535, Metabolic Activation: RAT, LIVER, S-9, AROCLOR 1254, Method: STANDARD PLATE.
Where [15] appears, read: Test System: AMES SALMONELLA TYPHIMURIUM, Strain/Indicator: TA1537, Metabolic Activation: HAMSTER, LIVER, S-9, AROCLOR 1254 (10%), Method: PREINCUBATION
[16] abbreviates: Test System: AMES SALMONELLA TYPHIMURIUM, Strain/Indicator: TA1537, Metabolic Activation: NONE, Method: PREINCUBATION
Setting [17] is: Test System: AMES SALMONELLA TYPHIMURIUM, Strain/Indicator: TA1537, Metabolic Activation: RAT, LIVER, S-9, AROCLOR 1254 (10%), Method: PREINCUBATION

Active and inactive are the calls of the source. How the calls were made is not given here.

Regarding `Cc1cc(-c2ccc(N=Nc3cc(S(=O)(=O)O)c4ccccc4c3N)c(C)c2)ccc1N=Nc1cc(S(=O)(=O)O)c2ccccc2c1N`, the mutagenic call runs as follows: (Test System: AMES SALMONELLA TYPHIMURIUM, Strain/Indicator: SV50, Metabolic Activation: HAMSTER, LIVER, S-9, Method: PREINCUBATION (PRIVAL METHOD)) “active; positive”; (Test System: AMES SALMONELLA TYPHIMURIUM, Strain/Indicator: SV50, Metabolic Activation: RAT, LIVER, S-9, AROCLOR 1254, Method: PREINCUBATION (PRIVAL METHOD)) “active; positive”; under setting [1], “inactive; negative”; (Test System: AMES SALMONELLA TYPHIMURIUM, Strain/Indicator: TA98, Metabolic Activation: HAMSTER, LIVER, S-9, AROCLOR 1254, Method: STANDARD PLATE) “inactive; negative”; (Test System: AMES SALMONELLA TYPHIMURIUM, Strain/Indicator: TA98, Metabolic Activation: HAMSTER, LIVER, S-9, Method: PREINCUBATION (PRIVAL METHOD)) “active; positive”; under setting [2], “inactive; negative”. In addition, the mutagenic call under setting [3] is “inactive; negative”; the mutagenic call under setting [4] was “inactive; negative”; the mutagenic call (Test System: AMES SALMONELLA TYPHIMURIUM, Strain/Indicator: TA98, Metabolic Activation: RAT, LIVER, S-9, AROCLOR 1254, Method: PREINCUBATION (PRIVAL METHOD)) was “active; positive”; the mutagenic call under setting [5] is “inactive; negative”; the mutagenic call under setting [6] was “inactive; negative”; the mutagenic call (Test System: AMES SALMONELLA TYPHIMURIUM, Strain/Indicator: TA100, Metabolic Activation: HAMSTER, LIVER, S-9, AROCLOR 1254, Method: STANDARD PLATE) is “inactive; negative”. For the same compound, the mutagenic call by setting is: under setting [7], “inactive; negative”; under setting [8], “inactive; negative”; under setting [9], “inactive; negative”; under setting [10], “inactive; negative”; under setting [11], “inactive; negative”; (Test System: AMES SALMONELLA TYPHIMURIUM, Strain/Indicator: TA1535, Metabolic Activation: HAMSTER, LIVER, S-9, AROCLOR 1254, Method: STANDARD PLATE) “inactive; negative”. Besides, the mutagenic call runs as follows: under setting [12], “inactive; negative”; (Test System: AMES SALMONELLA TYPHIMURIUM, Strain/Indicator: TA1535, Metabolic Activation: NONE, Method: STANDARD PLATE) “inactive; negative”; under setting [13], “inactive; negative”; under setting [14], “inactive; negative”; under setting [15], “inactive; negative”; (Test System: AMES SALMONELLA TYPHIMURIUM, Strain/Indicator: TA1537, Metabolic Activation: HAMSTER, LIVER, S-9, AROCLOR 1254, Method: STANDARD PLATE) “inactive; negative”. The mutagenic call is “inactive; negative” under setting [16]; “inactive; negative” (Test System: AMES SALMONELLA TYPHIMURIUM, Strain/Indicator: TA1537, Metabolic Activation: NONE, Method: STANDARD PLATE); “inactive; negative” under setting [17]; “inactive; negative” (Test System: AMES SALMONELLA TYPHIMURIUM, Strain/Indicator: TA1537, Metabolic Activation: RAT, LIVER, S-9, AROCLOR 1254, Method: STANDARD PLATE); “inactive; negative” (Test System: AMES SALMONELLA TYPHIMURIUM, Strain/Indicator: TA1538, Metabolic Activation: HAMSTER, LIVER, S-9, AROCLOR 1254, Method: STANDARD PLATE); “inactive; negative” (Test System: AMES SALMONELLA TYPHIMURIUM, Strain/Indicator: TA1538, Metabolic Activation: HAMSTER, LIVER, S-9, Method: STANDARD PLATE). Besides, the mutagenic call was “inactive; negative” (Test System: AMES SALMONELLA TYPHIMURIUM, Strain/Indicator: TA1538, Metabolic Activation: NONE, Method: STANDARD PLATE); “inactive; negative” (Test System: AMES SALMONELLA TYPHIMURIUM, Strain/Indicator: TA1538, Metabolic Activation: RAT, LIVER, S-9, AROCLOR 1254, Method: STANDARD PLATE); “inactive; negative. reevaluation of results: negative” (Test System: MOUSE LYMPHOMA, Strain/Indicator: L5178Y (TK+/TK-), Metabolic Activation: NONE, Method: SUSPENSION/PLATE); “inactive; negative. reevaluation of results: negative” (Test System: MOUSE LYMPHOMA, Strain/Indicator: L5178Y (TK+/TK-), Metabolic Activation: RAT, LIVER, S-9, AROCLOR 1254, Method: SUSPENSION/PLATE).

Consider `COc1cccc2c1C(=O)c1c(O)c3c(c(O)c1C2=O)C[C@@](O)(C(=O)CO)CC3O[C@H]1C[C@H](N(C)C)[C@H](O)[C@H](C)O1` (stereo partly specified), for which the mutagenic call is “inactive; negative” (Test System: AMES SALMONELLA TYPHIMURIUM, Strain/Indicator: TA98, Metabolic Activation: NONE); “inactive; negative” (Test System: AMES SALMONELLA TYPHIMURIUM, Strain/Indicator: TA98, Metabolic Activation: RAT, LIVER, S-9, AROCLOR 1254); “active; positive” (Test System: AMES SALMONELLA TYPHIMURIUM, Strain/Indicator: TA102, Metabolic Activation: NONE, Method: STANDARD PLATE); “active; positive” (Test System: UDS RAT HEPATOCYTES, Strain/Indicator: THY INCORP, Metabolic Activation: NONE, Method: AUTOMATIC COLONY COUNTER).

`COc1cc(C=O)ccc1O`: the mutagenic call was “inactive; negative” under setting [3]; “inactive; negative” under setting [5]; “inactive; negative” under setting [8]; “inactive; negative” under setting [10]; “inactive; negative” under setting [14]; “inactive; negative” (Test System: E. COLI, Strain/Indicator: CM561 LEXA, Metabolic Activation: NONE, Method: STANDARD PLATE). In addition, the mutagenic call runs as follows: (Test System: E. COLI, Strain/Indicator: CM611 UVRA/LEXA, Metabolic Activation: NONE, Method: STANDARD PLATE) “inactive; negative”; (Test System: E. COLI, Strain/Indicator: WP2 UVRA, Metabolic Activation: NONE, Method: STANDARD PLATE) “inactive; negative”.

Consider `O=c1ccc(=O)[nH][nH]1`, for which the mutagenic call by setting is: (End Point: IN VITRO CHROMOSOMAL ABERRATIONS, Test System: HUMAN PERIPHERAL BLOOD LYMPHOCYTES, Metabolic Activation: NONE) “inactive; negative”; (End Point: IN VITRO MICRONUCLEUS, Test System: HUMAN PERIPHERAL BLOOD LYMPHOCYTES, Metabolic Activation: NONE) “inactive; negative”; (End Point: IN VITRO MICRONUCLEUS, Test System: HUMAN PERIPHERAL BLOOD LYMPHOCYTES, Metabolic Activation: S-9) “inactive; negative”; under setting [1], “inactive; negative”; under setting [2], “inactive; negative”; under setting [4], “inactive; negative”. Also, the mutagenic call is “inactive; negative” under setting [6]; “inactive; negative” under setting [7]; “inactive; negative” under setting [9]; “inactive; negative” under setting [11]; “inactive; negative” under setting [12]; “inactive; negative” under setting [13]. Also, the mutagenic call is “inactive; negative” under setting [15], “inactive; negative” under setting [16] and “inactive; negative” under setting [17].
